Laboratory results reported in paper PMC8269059, “Glycyrrhizin Derivatives Suppress Cancer Chemoresistance by Inhibiting Progesterone Receptor Membrane Component 1” (Cancers, 2021).
Where two headings read alike, the source gives them in different places.

Key:
[1] = test system: EGFR signaling (phosphorylation of EGFR, AKT, ERK); assay: EGF-induced EGFR signaling (western blot) in HCT116 cells; type: cell-based, human; settings: for EGF-induced phosphorylation of EGFR, AKT and ERK: HCT116, EGF 100 ng/mL for 5 min
From the text: […] Cells were lysed with RIPA buffer, and the lysates were subjected to SDS-PAGE and visualized through western blotting using antibodies against PGRMC1, EGFR, phospho-Y1068 EGFR, AKT, phospho-S473AKT, ERK, and phospho-T185 Y187 ERK.

HCT116 cells = assay: Chemosensitivity MTT assay in HCT116 cells; type: cell-based, human; settings: Homo sapiens, HCT-116, HCT116 cell viability, MTT
Procedure: The HCT116 cells, a human colon cancer cell line, and HuH7 cells, a human hepatoma cell line, were maintained in Dulbecco’s modified Eagle’s medium (DMEM) containing 10% fetal bovine serum (FBS) and 1% penicillin-streptomycin at 37 °C in a 5% CO2 humidified incubator.
To analyze the chemosensitivity of HCT116 or HuH7 cells, the cells were incubated with erlotinib (20 µM) or CDDP (10 µM) and either GL or GL derivatives for 24 h on a 96-well plate. Cell viability was determined using an MTT assay kit (Millipore, Burlington, MA, USA) according to the manufacturer’s instructions.

heme-dimerized PGRMC1 = biological target: T1, heme-dimerized PGRMC1 (Homo sapiens, UniProt O00264); assay: ITC binding to heme-dimerized PGRMC1; settings: for Kd / TΔS / ΔG / ΔH: ITC; for Kd: 298 K, 50 mM phosphate pH 7.0, heme-dimerized PGRMC1 (WT); for TΔS / ΔG / ΔH: heme-dimerized PGRMC1 (WT)
T1 construct: human PGRMC1 intracellular domain residues 43-195; GST (N, cleaved yes); made in house; host or cells: E. coli BL21 (DE3)
T1 sequence (O00264 43-195): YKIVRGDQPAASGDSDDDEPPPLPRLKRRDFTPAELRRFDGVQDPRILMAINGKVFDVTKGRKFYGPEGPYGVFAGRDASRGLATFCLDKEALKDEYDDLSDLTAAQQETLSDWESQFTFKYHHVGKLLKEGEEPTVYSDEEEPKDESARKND
Procedure: Expression vectors for PGRMC1 point mutants were generated by site-directed mutagenesis with PCR.
Protein expression was induced by adding 1 mM isopropyl-β-thiogalactopyranoside (IPTG) and incubating at 37 °C for 4 h. After harvesting cells, the cell pellets were then resuspended in buffer containing 20 mM Tris-HCl (pH 7.5), 100 mM NaCl, and 0.1% Tween 20, sonicated twice at 4 °C for 5 min, and centrifuged at 20,000× g for 30 min. The supernatant was incubated with glutathione Sepharose 4B (GE Healthcare, Chicago, IL, USA) for 1 h at 4 °C. The resin was then washed five times with the same buffer, and the GST tag cleaved by adding Precision Protease (GE Healthcare) and incubating at 4 °C for 16 h. Apo-PGRMC1 or HMGB1 proteins was purified using size-exclusion chromatography in a Superdex 200 column (GE Healthcare). Heme-bound PGRMC1 was prepared by treating with 100 μM hemin and then purified using size-exclusion chromatography.
GL derivatives were dissolved in 3 mM ITC-Buffer and titrated into 100 μM apo-PGRMC1, heme-bound-PGRMC1, or HMGB1 protein. Titration was performed by injecting 2 µL of the syringe solution at intervals of 120 s. Binding isotherms were analyzed using SEDPHAT [35]. The binding of AG205 to apo- or heme-PGRMC1 (100 μM) was analyzed using a concentration of 3 mM containing 1% DMSO.

[2] = biological target: T2, interaction between PGRMC1 and CYP3A4 (Homo sapiens, UniProt O00264); assay: In vitro binding assay between PGRMC1 and CYP3A4; settings: purified proteins, co-IP
T2 construct: FLAG-PGRMC1 (a.a. 44-195); Sigma (CYP3A4 only) C4982 (CYP3A4 only)
T2 sequence (O00264 44-195): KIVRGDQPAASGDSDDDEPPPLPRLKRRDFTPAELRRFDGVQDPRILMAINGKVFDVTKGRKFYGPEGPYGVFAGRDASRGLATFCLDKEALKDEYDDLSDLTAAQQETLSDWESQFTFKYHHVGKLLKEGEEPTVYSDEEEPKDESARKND
Procedure: For in vitro binding assays between PGRMC1 and CYP3A4, 1 μg of purified CYP3A4 proteins (Sigma: C4982) were incubated with 10 μg of FLAG-PGRMC1 (a.a. 44-195) treated with or without GL or GlucoGL in 500 μL of binding buffer containing 20 mM HEPES-NaOH (pH 7.9), 100 mM NaCl, 0.2 mM EDTA, 10% glycerol, and 0.1% NP40 for 60 min at room temperature. Then, 10 μL of equilibrated anti-FLAG (M2) agarose was added to the mixture, which was then incubated for 60 min at room temperature. Bound proteins were washed three times with 200 μL of binding buffer and eluted with 10 μL of 2 μg/mL FLAG elution peptide (Sigma: F4799). The eluates were subjected to SDS–PAGE and visualized by Western blotting using antibodies against CYP3A4 (Santa Cruz: sc-53850) and FLAG.

[3] = test system: EGF uptake in HCT116 cells; assay: Alexa Fluor 488 EGF uptake in HCT116 cells; type: cell-based, human; settings: HCT116, microscopy and flow cytometry, 5 min, vs control cells
Procedure: (§1) For the analysis of EGF and LDL uptake, HCT116 cells were incubated with serum-free DMEM supplemented with Alexa Fluor 488 EGF complex or Alexa Fluor 488 acetylated LDL to a final concentration of 1 µg/L at 37 °C for 5 min. For immunofluorescence microscopy analyses, HCT116 cells treated with Alexa Fluor 488-labeled EGF or LDL were fixed with 4% paraformaldehyde for 20 min and incubated in 10 mg/L DAPI for 15 min. The cells were observed using a BZ-x800 fluorescence microscope (Keyence, IL, USA). For flow cytometry analysis, HCT116 cells treated with Alexa Fluor 488-labeled EGF or LDL were detached using trypsin/EDTA and suspended in PBS. The mean fluorescent intensity per 10,000 cells was analyzed using a flow cytometer (Gallios, Beckman Coulter Life Science, Pasadena, CA, USA). The data were analyzed using Kaluza 2.1 analysis software (Beckman Coulter Life Science).

[4] = test system: LDL uptake in HCT116 cells; assay: Alexa Fluor 488-labelled LDL uptake in HCT116 cells; type: cell-based, human; settings: HCT116, microscopy and flow cytometry, 5 min
Procedure: as §1

HCT116 cells xenograft = assay: HCT116 xenograft in nude mice; type: in vivo, mouse; settings: i.p. twice a week, vs control; for Tumor volume, in combination with CDDP: CDDP 2 mg/kg plus GL 400 mg/kg (day 22) or GlucoGL 100 mg/kg (from day 15)
Procedure: All protocols for animal experiments in this study were approved by the Experimental Animal Committee of Keio University School of Medicine (approval number: 08024-(13), approval date: 30 September 2020). HCT116 cells (2 × 10^6 cells/mouse) with half of Matrigel (Corning, NY, USA) were transplanted subcutaneously into the flank of 7-week-old nude mice. Four days after the transplantation, tumor size was measured in three dimensions with calipers and grouped by tumor volume. CDDP (2 mg/kg), GL (400 mg/kg), or GlucoGL (100 mg/kg) were administered to the mice intraperitoneally, and the tumor volume was measured twice a week for 22 days.

[5] = biological target: T3, interaction between PGRMC1 and EGFR (Homo sapiens, UniProt O00264); assay: Co-immunoprecipitation of PGRMC1 and EGFR in HCT116 cells; type: cell-based; settings: HCT116, FLAG-PGRMC1 co-IP, 12 h treatment
T3 construct: mammalian FLAG-tagged expression vector pCMV-FLAG-PGRMC1 (full-length); expressed in transfected cells; host or cells: HCT116 or HuH7
T3 sequence (O00264 whole entry): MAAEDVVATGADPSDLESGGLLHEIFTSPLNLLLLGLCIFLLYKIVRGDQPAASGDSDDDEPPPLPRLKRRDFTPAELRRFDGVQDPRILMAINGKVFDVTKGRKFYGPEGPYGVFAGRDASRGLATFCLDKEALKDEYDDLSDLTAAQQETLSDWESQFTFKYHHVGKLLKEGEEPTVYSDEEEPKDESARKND
Procedure: An expression vector of pCMV-3xFLAG-PGRMC1 or an empty vector was transfected into HCT116 cells or HuH7 cells using the transfection reagent Lipofectamine 2000 (Invitrogen). The cells were incubated overnight with either GL or GlucoGL. Cells were then lysed with NP40 lysis buffer (20 mM Tris-HCl [pH 7.5], 150 mM NaCl, and 1% NP40). The lysates were incubated with 10 μL of equilibrated anti-FLAG (M2) agarose for 60 min at room temperature. Bound proteins were washed three times and subjected to SDS-PAGE and visualized through western blotting using antibodies against FLAG, EGFR, and LDLR. For analysis of the endogenous PGRMC1-binding with FLAG-PGRMC1, HCT116 cells (1 × 10^7 cells) were treated with vehicle or 250 μM SA and/or 10 μM hemin for 48 h, and the cell lysates were co-immunoprecipitated with anti-FLAG (M2) agarose. Bound proteins (endogenous PGRMC1 and FLAG-tagged PGRMC1) were visualized through western blotting using antibody against PGRMC1.

[6] = with CDDP (10 µM), read-out: IC50 CDDP
[7] = with erlotinib (20 µM), read-out: IC50 Erlotinib

| SMILES | EGF-induced phosphorylation of EGFR, AKT and ERK [1] | EGF signaling, time-course ([1]; HCT116, early phase of EGF stimulation (5 or 10 min)) | IC50 (HCT116 cells; [6]) | IC50 (HCT116 cells; [7]) | Kd (heme-dimerized PGRMC1) | TΔS (heme-dimerized PGRMC1) | ΔG (heme-dimerized PGRMC1) | ΔH (heme-dimerized PGRMC1) | Interaction between PGRMC1 and CYP3A4 [2] | Uptake of labelled EGF [3] | Labelled-LDL uptake [4] | Tumor volume, in combination with CDDP (HCT116 cells xenograft) | Interaction between PGRMC1 and EGFR [5] | Binding to heme-dimerized PGRMC1 relative to binding to HMGB1 (heme-dimerized PGRMC1; ratio of KD HMGB1 / PGRMC1) | Tumor volume, administered individually (HCT116 cells xenograft; 22 days, CDDP 2 mg/kg, GL 400 mg/kg) |
| --- | --- | --- | --- | --- | --- | --- | --- | --- | --- | --- | --- | --- | --- | --- | --- |
| CC1(C(=O)O)CCC2(C)CCC3(C)C(=CC(=O)C4C5(C)CCC(OC6OC(C(=O)O)C(O)C(O)C6OC6OC(CO)C(O)C(O)C6O)C(C)(C)C5CCC43C)C2C1 (stereo not drawn) [Glucoglycyrrhizin (GlucoGL), Glucoglycyrrhizin] | significantly suppressed | remarkable inhibitory effect | 14.9 µM | 15.7 µM | 1.38 µM | 7.44 K·kcal/mol | -8.00 kcal/mol | -0.56 kcal/mol | interfered with the interaction | significantly suppressed | significantly suppressed | significantly suppressed the tumor volume | inhibited the interaction more potently |  |  |
| CC1(C)[C@@H](O[C@H]2O[C@H](C(=O)O)[C@@H](O)[C@H](O)[C@H]2O[C@@H]2O[C@H](C(=O)O)[C@@H](O)[C@H](O)[C@H]2O)CC[C@]2(C)[C@H]3C(=O)C=C4[C@@H]5C[C@@](C)(C(=O)O)CC[C@]5(C)CC[C@@]4(C)[C@]3(C)CC[C@@H]12 [Glycyrrhizin (GL), Glycyrrhizin] | significantly suppressed |  | 53.1 µM | 52 µM | 52.7 µM | 4.61 K·kcal/mol | -5.84 kcal/mol | -1.23 kcal/mol | interfered with the interaction | significantly suppressed | significantly suppressed | significantly smaller | inhibited | 4.23 times | no differences in tumor volume |
